Laboratory results as given in US10858360B2, “Tricyclic gyrase inhibitors” (priority 2011, dated 2020).
Values after ≈ are worked out from the molar mass of the structure shown. Like-named read-outs stand apart in the source and are kept apart here.

What was measured:
[1] = tested on: E. coli ATCC 25922; test: MIC, E. coli ATCC 25922; format: cell-based; conditions: for MIC: Escherichia coli, ATCC25922, E. coli
[2] = tested on: S. aureus ATCC 13709; test: MIC, S. aureus ATCC 13709 (Alamar Blue broth microdilution); format: cell-based; conditions: for MIC: Staphylococcus aureus, ATCC13709, S. aureus
[3] = E. coli, Alamar Blue read after overnight incubation at 35° C.
[4] = S. aureus, Alamar Blue read after overnight incubation at 35° C.
[5] = Alamar Blue read after overnight incubation at 35° C.

CNc1cc(Cl)cc2c1[nH]c1nc(Oc3cnc4cccnc4c3)nc(N3CCCC4(CC4N)C3)c12 (centres unmarked) [6.14]
MIC Ec [1]: 1 µg/mL (≈ 2 µM)
MIC Sa [2]: ≤0.5 µg/mL

CNc1cc(F)cc2c1[nH]c1nc(Oc3cnc(CCO)nc3)nc(N3CC4C[C@@H](N)C4C3)c12 (some centres unmarked) [4.429]
MIC Ec [1, 3]: 1 µg/mL (≈ 2.15 µM)
MIC Sa [2, 4]: ≤0.5 µg/mL

CNc1cc(F)cc2c1[nH]c1nc(Oc3cncc(C#N)c3)nc(N3CC4CC(N)C4C3)c12 (centres unmarked) [4.053]
MIC Ec [1, 3]: ≤0.5 µg/mL
MIC Sa [2, 4]: ≤0.5 µg/mL

COc1cccc2c1[nH]c1nc(Oc3cncnc3)nc(N3CCC(NC(C)=O)C3)c12 (centres unmarked) [2.11]
MIC Ec [1, 3]: >64 µg/mL
MIC Sa [2, 4]: 4 µg/mL (≈ 9.54 µM)

Cc1ncc(Oc2nc(N3C[C@H](NC(=O)CN)C4(CC4)C3)c3c(n2)[nH]c2c(N(C)C(=O)CN)cc(F)cc23)cn1 [4.427]
MIC [1, 5]: > 16 µg/mL
MIC [2, 5]: > 16 µg/mL

CNc1cc(F)cc2c1[nH]c1nc(Oc3cnc(SC)nc3)nc(N3CCC4(C[C@H]4N)C3)c12 (some centres unmarked) [4.203]
MIC Ec [1, 3]: ≤0.5 µg/mL
MIC Sa [2, 4]: ≤0.5 µg/mL

CNc1cc(F)cc2c1[nH]c1nc(Oc3cnc(-c4nccn4C)nc3)nc(N3C[C@H](N)C4(CC4)C3)c12 [4.399]
MIC [1, 5]: 2 µg/mL (≈ 4 µM)
MIC [2, 5]: ≤ 0.5 µg/mL

CNc1cc(F)cc2c1[nH]c1nc(Oc3cncc(F)c3)nc(N3CC4(CCC4N)C3)c12 (centres unmarked) [4.061]
MIC Ec [1, 3]: ≤0.5 µg/mL
MIC Sa [2, 4]: ≤0.5 µg/mL

CNc1cc(F)cc2c1[nH]c1nc(Oc3ccc(C#N)nc3)nc(N3CCC(N)C3)c12 (centres unmarked) [4.331]
MIC Ec [1, 3]: ≤0.5 µg/mL
MIC Sa [2, 4]: ≤0.5 µg/mL

CNc1cccc2c1[nH]c1nc(Oc3cnc(C)nc3)nc(N3CC4C(C3)C4NC(=O)CN)c12 (centres unmarked) [3.18]
MIC [1, 5]: > 16 µg/mL
MIC [2, 5]: 4 µg/mL (≈ 8.7 µM)

NC1C2CN(c3nc(Sc4cnc5cccnc5c4)nc4[nH]c5c(NC6CC6)cc(F)cc5c34)CC12 (centres unmarked) [1.1]
MIC [1, 5]: 64 µg/mL (≈ 128 µM)
MIC [2, 5]: 4 µg/mL (≈ 8.02 µM)

CNc1cccc2c1[nH]c1nc(Oc3cncc(C(=O)O)c3)nc(N3CC4C(N)C4C3)c12 (centres unmarked) [3.20]
MIC [1, 5]: > 8 µg/mL
MIC [2, 5]: > 8 µg/mL

CNc1cc(F)cc2c1[nH]c1nc(Oc3ccc4nc5n(c(=O)c4c3)CCC5)nc(N3CC4C[C@@H](N)C4C3)c12 (some centres unmarked) [4.376]
MIC [1, 5]: > 16 µg/mL
MIC [2, 5]: > 16 µg/mL

CNc1cc(F)cc2c1[nH]c1nc(Oc3cnc(N)nc3)nc(N3CC4C(N)C4C3)c12 (centres unmarked) [4.172]
MIC [1, 5]: ≤ 0.5 µg/mL
MIC [2, 5]: ≤ 0.5 µg/mL

CNc1cc(F)cc2c1[nH]c1nc(Oc3cnc(C#N)c(C)c3)nc(N3CC4(CC[C@H]4N)C3)c12 [4.326]
MIC [1, 5]: ≤ 0.5 µg/mL
MIC [2, 5]: ≤ 0.5 µg/mL

CNc1cccc2c1[nH]c1nc(Sc3cnc4cccnc4c3)nc(N3CCC(CO)C3)c12 (centres unmarked) [1.53]
MIC [1, 5]: 8 µg/mL (≈ 17.5 µM)
MIC [2, 5]: ≤ 0.5 µg/mL

CNc1cccc2c1[nH]c1nc(Sc3cncc(S(N)(=O)=O)c3)nc(N3CC4C(N)C4C3)c12 (centres unmarked) [1.41]
MIC [1, 5]: 8 µg/mL (≈ 16.6 µM)
MIC [2, 5]: 4 µg/mL (≈ 8.29 µM)

CNc1cccc2c1[nH]c1nc(Oc3cncc(C#N)c3)nc(N3CCC4(CC4N)C3)c12 (centres unmarked) [3.40]
MIC [1, 5]: 1 µg/mL (≈ 2.34 µM)
MIC [2, 5]: ≤ 0.5 µg/mL

CNc1cccc2c1[nH]c1nc(Sc3ccc4ccc(C(=O)O)nc4c3)nc(N3CC4C(N)C4C3)c12 (centres unmarked) [1.74]
MIC [1, 5]: > 64 µg/mL
MIC [2, 5]: 4 µg/mL (≈ 8.04 µM)

CNc1cc(F)cc2c1[nH]c1nc(Oc3cnc(C)nc3)nc(N3CC4(CC4N)C3)c12 (centres unmarked) [4.096]
MIC Ec [1, 3]: ≤0.5 µg/mL
MIC Sa [2, 4]: ≤0.5 µg/mL

CNc1cc(F)cc2c1[nH]c1nc(Oc3cnc(CC(=O)N(C)OC)nc3)nc(N3C[C@H](N)C4(CC4)C3)c12 [4.370]
MIC [1, 5]: 1 µg/mL (≈ 1.92 µM)
MIC [2, 5]: ≤ 0.5 µg/mL

CNc1cc(F)cc2c1[nH]c1nc(Oc3cncnc3)nc(N3CCCC(C)(N)C3)c12 (centres unmarked) [4.024]
MIC [1, 5]: 2 µg/mL (≈ 4.73 µM)
MIC [2, 5]: ≤ 0.5 µg/mL

CNc1cc(F)cc2c1[nH]c1nc(Oc3cnc(C)nc3)nc(NC3CCCC[C@@H]3N)c12 (some centres unmarked) [4.109]
MIC Ec [1, 3]: 1 µg/mL (≈ 2.29 µM)
MIC Sa [2, 4]: ≤0.5 µg/mL

CNc1cc(F)cc2c1[nH]c1nc(Oc3ccc[n+]([O-])c3)nc(N3CC4C[C@@H](N)C4C3)c12 (some centres unmarked) [4.349]
MIC [1, 5]: 1 µg/mL (≈ 2.3 µM)
MIC [2, 5]: ≤ 0.5 µg/mL

CNc1cc(F)cc2c1[nH]c1nc(Oc3cnc4c(c3)ncn4C)nc(N3CC4CC3CC4N)c12 (centres unmarked) [4.228]
MIC Ec [1, 3]: 1 µg/mL (≈ 2.11 µM)
MIC Sa [2, 4]: ≤0.5 µg/mL

CNc1cc(F)cc2c1[nH]c1nc(Oc3cnc4c(c3)ncn4C3CC3)nc(N3CC(N)C4(CC4)C3)c12 (centres unmarked) [4.362]
MIC Ec [1, 3]: 1 µg/mL (≈ 2 µM)
MIC Sa [2, 4]: ≤0.5 µg/mL

CCOC(=O)c1ncc(Oc2nc(N3CC4C[C@@H](N)C4C3)c3c(n2)[nH]c2c(NC)cc(F)cc23)cn1 (some centres unmarked) [4.401]
MIC [1, 5]: ≤ 0.5 µg/mL
MIC [2, 5]: ≤ 0.5 µg/mL

CCc1cc(F)cc2c1[nH]c1nc(Oc3cncnc3)nc(N3CC4C(N)C4C3)c12 (centres unmarked) [2.2]
MIC [1, 5]: 4 µg/mL (≈ 9.87 µM)
MIC [2, 5]: 2 µg/mL (≈ 4.93 µM)

CNc1cccc2c1[nH]c1nc(Oc3cncnc3)nc(-c3cn[nH]c3)c12 [3.9]
MIC [1, 5]: 32 µg/mL (≈ 89.3 µM)
MIC [2, 5]: 2 µg/mL (≈ 5.58 µM)

CNc1cc(F)cc2c1[nH]c1nc(Oc3cnc(C(C)(C)O)nc3)nc(C3CC4(CC[C@H]4N)C3)c12 (some centres unmarked) [4.431]
MIC [1, 5]: ≤ 0.5 µg/mL
MIC [2, 5]: ≤ 0.5 µg/mL

CNc1cc(F)cc2c1[nH]c1nc(Oc3cncc(-c4cn[nH]c4)c3)nc(N3CC4C(N)C4C3)c12 (centres unmarked) [4.206]
MIC [1, 5]: 4 µg/mL (≈ 8.48 µM)
MIC [2, 5]: ≤ 0.5 µg/mL

CNc1cc(F)cc2c1[nH]c1nc(Oc3cnc(C)nc3)nc(N3CCC(F)(CN)CC3)c12 [4.159]
MIC [1, 5]: ≤ 0.5 µg/mL
MIC [2, 5]: ≤ 0.5 µg/mL

CNc1cc(F)cc2c1[nH]c1nc(Oc3cncnc3)nc(N3CC4CC4(CN)C3)c12 (centres unmarked) [4.027]
MIC [1, 5]: 1 µg/mL (≈ 2.38 µM)
MIC [2, 5]: ≤ 0.5 µg/mL

CNc1cccc2c1[nH]c1nc(Oc3cncc(F)c3)nc(N3CC4CNC4C3)c12 (centres unmarked) [3.7]
MIC [1, 5]: 4 µg/mL (≈ 9.87 µM)
MIC [2, 5]: 1 µg/mL (≈ 2.47 µM)

CNc1cccc2c1[nH]c1nc(Oc3ccc[n+]([O-])c3)nc(Oc3cnc(C)nc3)c12 [3.39]
MIC [1, 5]: 64 µg/mL (≈ 154 µM)
MIC [2, 5]: 2 µg/mL (≈ 4.81 µM)

CNc1cccc2c1[nH]c1nc(Sc3cnc4cccnc4c3)nc(N3CCN(C(C)=O)CC3)c12 [1.67]
MIC [1, 5]: > 64 µg/mL
MIC [2, 5]: ≤ 0.5 µg/mL

CCOC(=O)c1ncc(Oc2nc(N3CC4CC3C[C@@H]4N)c3c(n2)[nH]c2c(NC)cc(F)cc23)cn1 (some centres unmarked) [4.400]
MIC [1, 5]: ≤ 0.5 µg/mL
MIC [2, 5]: ≤ 0.5 µg/mL

CNc1cccc2c1[nH]c1nc(Oc3cncnc3)nc(N3CC[C@@H](N)C3)c12 [3.4]
MIC [1, 5]: ≤ 0.5 µg/mL
MIC [2, 5]: 0.5 µg/mL (≈ 1.33 µM)

CNc1cccc2c1[nH]c1nc(Oc3cncc(C#N)c3)nc(N3CC(N)C4(CC4)C3)c12 (centres unmarked) [3.43]
MIC [1, 5]: 1 µg/mL (≈ 2.34 µM)
MIC [2, 5]: ≤ 0.5 µg/mL

CNc1cc(F)cc2c1[nH]c1nc(Oc3cncc([S+](C)[O-])c3)nc(N3CC(N)C4(CC4)C3)c12 (centres unmarked) [4.352]
MIC Ec [1, 3]: 4 µg/mL (≈ 8.31 µM)
MIC Sa [2, 4]: ≤0.5 µg/mL

CNc1cc(F)cc2c1[nH]c1nc(Oc3cnc(C)nc3)nc(N3CC(CN)C3)c12 [4.143]
MIC Ec [1, 3]: 2 µg/mL (≈ 4.9 µM)
MIC Sa [2, 4]: ≤0.5 µg/mL

CNc1cc(F)cc2c1[nH]c1nc(Oc3ccc4cncnc4c3)nc(N3CC4[C@H](N)C[C@]4(C)C3)c12 (some centres unmarked) [4.366]
MIC [1, 5]: 1 µg/mL (≈ 2.06 µM)
MIC [2, 5]: ≤ 0.5 µg/mL

CNc1cc(F)c(F)c2c1[nH]c1nc(Oc3cnc(N)nc3)nc(N3CC4(CCC4N)C3)c12 (centres unmarked) [5.07]
MIC Ec [1, 3]: 1 µg/mL (≈ 2.21 µM)
MIC Sa [2, 4]: ≤0.5 µg/mL

Cc1ncc(Oc2nc(N3C[C@H](N)C4(CC4)C3)c3c(n2)[nH]c2c(N(C)C(=O)[C@H](C)NC(=O)[C@H](C)N)cc(F)cc23)cn1 [4.425]
MIC [1, 5]: > 16 µg/mL
MIC [2, 5]: > 16 µg/mL

CNc1cc(F)cc2c1[nH]c1nc(Oc3cnc(C)nc3)nc(N3CC(NC(=O)C(C)N)C4(CC4)C3)c12 (centres unmarked) [4.142]
MIC Ec [1, 3]: 1 µg/mL (≈ 1.98 µM)
MIC Sa [2, 4]: ≤0.5 µg/mL

CNc1cc(Cl)cc2c1[nH]c1nc(Oc3cnc(N)nc3)nc(N3CC4CC(N)C4C3)c12 (centres unmarked) [6.16]
MIC Ec [1]: 1 µg/mL (≈ 2.21 µM)
MIC Sa [2]: ≤0.5 µg/mL
